A short description of one series: LD50 (acute toxicity). Particulars: in vivo.
The nature of a further series: in vivo. It counts as in vivo. The settings on record: in vivo; ratio of LD50 to ED50 tetrabenazine antagonism (head is a drawing); read-out: Dosage [drawing 7].
A further series relates to Tetrabenazine. The experiment in a line: animal or person. It counts as in vivo. Particulars: read-out: ED50 Tetrabenazine Antagonism.

Structures are written as SMILES. Structures can show the parent of a compound that is named as a salt.

Broadly, the LD50 is the dose expected to kill half of the subjects tested. Usually ED50 stands for the dose that gives a 50% effect, or the effect in half of the subjects.

In turn, `Cc1ccc2c(c1)c1c3n2CCN=C3CCC1` [Example 1, 8-methyl-2,4,5,6-tetrahydro-1H-pyrazino[3,2,1-jk]carbazole] registered a median lethal dose (LD50) in the series “LD50 (acute toxicity)” of 72 mg/kg. In the series “in vivo”, the selectivity ratio turned out to be 18. Further, in the series on Tetrabenazine, the ED50 stood at 4 mg/kg.

In the series “LD50 (acute toxicity)”, `Cc1ccc2c(c1)c1c3n2CCNC3CCC1.Cl` (centres unmarked) [8-methyl-2,3,3a,4,5,6-hexahydro-1H-pyrazino[3,2,1-jk]carbazole-hydrochloride, reference compound] returned a median lethal dose (LD50) of 122 mg/kg. In the series with Tetrabenazine, the 50% effective dose (ED50) stood at 14 mg/kg.

The compound `COc1ccc2c(c1)c1c3n2CCN=C3CCC1` [Example 2, 8-methoxy-2,4,5,6-tetrahydro-1H-pyrazino[3,2,1-jk] carbazole-hydrochlorides] showed a median lethal dose (LD50) in “LD50 (acute toxicity)” of 37 mg/kg. Besides, the selectivity ratio in “in vivo” came to 18.5. Moreover, in the series with Tetrabenazine, the ED50 turned out to be 2 mg/kg.

The values above are taken from patent publication US4258043A, “Pyrazino-carbazoles, process for the production thereof and pharmaceutical agents” (Cassella Aktiengesellschaft, priority 1979, dated 1981).
